From patent publication US6830916B2, “Sphingosine kinase, cloning, expression and methods of use” (priority 2000, dated 2004)
Values belong to the molecule of their own block, whether it stands above or below them.

Experiments:
[1] = target: T1, hSPHK1 (Homo sapiens, UniProt Q9NYA1); test: SPHK-dependent phosphorylation of sphingosine analogs and other lipids (substrate specificity of hSPHK1); format: biochemical; conditions: lipid 50 μM, lysates of HEK293 cells transfected with hSPHK1 as enzyme source
T1 construct: to obtain the full-length cDNA of hSPHK1; expressed in transfected cells; host or cells: HEK293
Protocol: (§1) Cytosolic sphingosine kinase activity was determined with 50 μM sphingosine dissolved in Triton X-100 (final concentration 0.25%) and […] (10 μCi, 1 mM) containing MgCl2 (10 mM). In some studies, sphingosine was added as a complex with bovine serum albumin (BSA). Specific activity was expressed as pmol SPP formed per minute per mg protein.
(§2) HEK293 cells were transfected with hSPHK1 and SPHK-dependent phosphorylation of various sphingosine analogs or other lipids (50 μM) was measured using cell lysates as enzyme source. DAG, diacylglycerol; PI, phosphatidylinositol; C2-CER, N-acetyl—sphingosine. […] SPHK activity in HEK293 cell lysates 24 h after transfection with hSPHK1 was measured with 10 μM […] in the absence or presence of 20 μM and 40 μM DMS or DHS. Data are means±SD and are expressed as percent inhibition.

[2] = target: T1, hSPHK1; test: Inhibition of SPHK activity in lysates of HEK293 cells transfected with hSPHK1; format: biochemical; conditions: for inhibition of hSPHK1: 20 μM and 40 μM inhibitor, 10 μM SPP (so in the source), HEK293 lysates 24 h after transfection
Protocol: as §1, §2

[3] = test system: mouse melanoma B10 cells; conditions: low nanomolar concentrations of SPP; also SPP immobilized on glass beads; cited from earlier work
[4] = test system: c-myc-SPHK; test: Cytosolic c-myc-SPHK activity in transfected NIH 3T3 fibroblasts; format: cell-based
Protocol: as §1

[5] = substrate: CCCCCCCCCCCCC/C=C/[C@@H](O)[C@@H](N)CO; test: SPHK-dependent phosphorylation of sphingosine analogs and other lipids (substrate specificity of hSPHK1); format: biochemical, human; conditions: other: D-erythro-sphingosine as substrate
Protocol: as §1, §2

substrate of hSPHK1 (SPHK-dependent phosphorylation) [1]: not substrates
Molecule: CCCCCCCCCCCCC/C=C/[C@@H](O)[C@H](CO)NC(C)=O [C2-ceramide, N-acetyl—sphingosine]

substrate of hSPHK1 (SPHK-dependent phosphorylation) [1]: best substrates
Molecule: CCCCCCCCCCCCCCC[C@H](O)[C@H](N)CO [erythrodihydrosphingosine]

substrate of hSPHK1 (SPHK-dependent phosphorylation) [1]: not substrates
Molecule: diacylglycerol

Second part, the molecule before the results:

Molecule: CCCCCCCCCCCCC/C=C/[C@@H](O)[C@@H](N)CO [D-erythro-sphingosine]
substrate of hSPHK1 (SPHK-dependent phosphorylation) [1]: more efficiently phosphorylated than sphingamine | substrate of hSPHK1 (SPHK-dependent phosphorylation) ([1]; listed as D-(+)-erythro-trans-isomer of sphingosine): best substrates

Molecule: CCCCCCCCCCCCCCC[C@H](O)[C@@H](N)CO [DHS, D,L-threo-dihydrosphingosine]
substrate of hSPHK1 (SPHK-dependent phosphorylation) [1]: not substrates | inhibition of hSPHK1 [2]: inhibited hSPHK1 | inhibition of hSPHK1 ([2]; listed as D,L-threo-dihydro-sphingosine): inhibitors of hSPHK1 | relative inhibitory potency on hSPHK1 ([2]; DHS compared with DMS): slightly more potent thank DMS

Molecule: CCCCCCCCCCCCC/C=C/[C@@H](O)[C@@H](N)COP(=O)(O)O [SPP, Sphingosine-1-phosphate]
effect on cell motility [3]: inhibited the motility

Molecule: N,N-dimethylsphingosine [DMS]
inhibition of hSPHK1 [2]: inhibitors of hSPHK1 | inhibition of hSPHK1 ([2]; listed as CMS): inhibited hSPHK1

Molecule: PDGF
effect on cytosolic c-myc-SPHK activity [4]: stimulated

Molecule: phosphatidylinositol
substrate of hSPHK1 (SPHK-dependent phosphorylation) [1]: not substrates

B1: hSPHK1 (Homo sapiens) (protein)
chain: MDPAGGPRGVLPRPCRVLVLLNPRGGKGKALQLFRSHVQPLLAEAEISFTLMLTERRNHARELVRSEELGRWDALVVMSGDGLMHEVVNGLMERPDWETAIQKPLCSLPAGSGNALAASLNHYAGYEQVTNEDLLTNCTLLLCRRLLSPMNLLSLHTASGLRLFSVLSLAWGFIADVDLESEKYRRLGEMRFTLGTFLRLAALRTYRGRLAYLPVGRVGSKTPASPVVVQQGPVDAHLVPLEEPVPSHWTVVPDEDFVLVLALLHSHLGSEMFAAPMGRCAAGVMHLFYVRAGVSRAMLLRLFLAMEKGRHMEYECPYLVYVPVVAFRLEPKDGKGVFAVDGELMVSEAVQGQVHPNYFWMVSGCVEPPPSWKPQQMPPPEEPL
notes: to obtain the full-length cDNA of hSPHK1; expressed in transfected cells; host or cells: HEK293
Km [5]: 5 µM
